Assay type in all cases: physicochemical
Series [1] can be described thus: Measurement of plasmid DNA encapsulation in lipid nanoparticles (Quant-iT Ribogreen). The method, then:
All equipment and disposable supplies are certified free of RNase activity by the manufacturer or rendered RNase free by use of the RNaseZap reagent (LifeTechnologies). Plasmid is encapsulated at a cationic lipid amine to DNA phosphate (N:P) molar ratio of 4:1. Lipids (cationic lipid, DSPC, cholesterol and lipidated PEG) are dissolved in ethanol. The molar ratios are 40:10:38:2, respectively. The mixture is sonicated briefly, then gently agitated for 5 minutes and then maintained at 37° C. until use. Plasmid is exchanged into citrate buffer pH 6.0 by use of Amicon Ultra-15 centrifugal concentrators, and the final concentration is adjusted to 0.053 mg/ml and held at 37° C. until use. An equal volume of lipids in ethanol, plasmid in citrate buffer, and citrate buffer alone are drawn into disposable syringes. Tubing leading from syringes containing lipids and DNA are attached to the T junction, and tubing leading from the syringe containing citrate buffer alone is paired with the tubing exiting the T-junction over a collection vessel containing a stir bar on an active stir plate. Syringes are placed in a syringe pump set to expel contents at a flow rate of 1 ml per minute. The pump is activated, and the collected DNA in lipid nanoparticles is transferred to SnakeSkin dialysis tubing (10,000 MWCO, Thermo Scientific). Material is dialyzed against RNAse- and pyrogen-free 1× phosphate buffered saline overnight at 4° C.
Percent encapsulation of plasmid DNA in lipid nanoparticles is determined using the Quant-iT Ribogreen RNA Assay kit (Life Technologies). The LNP-DNA suspension is assayed in buffer (DNA outside the particle), and buffer plus Triton X-100 detergent (total DNA). The difference calculated is the DNA inside the particle. Prepare a 1000 ng/mL stock using unpackaged plasmid and use this to generate a standard curve (0 ng/ml, 15.63-1000 ng/ml) in TE and TE+0.75% Triton X-100. Prepare LNP-plasmid samples in TE buffer and TE buffer+0.75% Triton X-100 with appropriate dilution so that reading is in the range of standard curve (25 fold). In a 384-well plate (Costar non-treated #3573) add 0.04 ml of standard (in duplicate) or sample (in triplicate) per well. Dilute Ribogreen reagent 240-fold in TE buffer and add 0.06 ml per well. Mix contents of wells and measure fluorescence (excitation=480 nm, emission=520 nm). Subtract background values (no DNA) from standard and test sample values and determine the concentrations of DNA in the samples using the standard curves. Determine the percent encapsulation of the sample by dividing the difference in concentrations between sample+triton and sample in buffer alone by the sample+triton concentration.

The nature of series [2]: Polydispersity index (PDI) by dynamic light scattering. The following applies: for PDI 1st IM / PDI 2nd IM: RSV-F replicon RNA LNP, DLS; for PDI 1st IM: 1st immunization; for PDI 2nd IM: 2nd immunization. The method, then:
Unless indicated otherwise, all PDIs referred to herein are the PDI of the fully formed nanoparticle, as measured by dynamic light scattering on a Malvern Zetasizer. The nanoparticle sample was diluted in phosphate buffered saline (PBS) so that the count rate was approximately 200-400 kcts. The data is presented in Table 3 as a weighted average of the intensity measure.
% entrapment (% E), Concentration of RNA (Conc), particle size measured by DLS, and polydispersity reported by DLS of LNPs prepared with different cationic lipids
(A replicon is a self-replicating genome or part of one, used to study replication in cells.)

Series [3] in a line: Measurement of mRNA encapsulation in lipid nanoparticles (Quant-iT Ribogreen). The following applies: for % encapsulation mRNA Leptin: Leptin mRNA in LNP. An outline of the steps: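 LNPs were formed by T-junction mixing of ethanolic lipids (cationic lipid:DSPC:cholesterol:PEG lipid 40:10:38:2) with mRNA in citrate pH 5.8–6.0 at N:P 4:1, then dialysed against PBS overnight at 4 °C. RiboGreen fluorescence (ex 480/em 520 nm) was read on samples diluted 400–2,000-fold in TE with or without 0.75% Triton X-100 and quantified against standard curves. Encapsulation % = (Triton − buffer concentration)/Triton concentration.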

Structures are written as SMILES.

With `CCCCC/C=C\C/C=C\CCCCCCCC(=O)OCC(COC(=O)CCCCCCC/C=C\C/C=C\CCCCC)COC(=O)C1(C)CCN(C)C1` (stereo not drawn) [Example 1, (9Z,9′Z,12Z,12′Z)-2-(((1,3-dimethylpyrrolidine-3-carbonyl)oxy)methyl)propane-1,3-diyl bis(octadeca-9,12-dienoate)], the “% Encap.” value in series [1] (hLep plasmid) turned out to be 93.0%; in series [1] (pDNA), 94.7%; in series [3] (FLuc mRNA), 86.8%; in series [3] (Gluc mRNA), 92.3%; in series [3] (hFIX mRNA), 89.5%; in series [3] (hLeptin mRNA) it was 96.7%. In addition, the “% Encap.” value in series [3] (mEPO mRNA) was determined as 94.7%. Also, the PDI in series [2] (FLuc mRNA) was found to be 0.152; in series [2] (FVII siRNA), 0.049; in series [2] (Gluc mRNA), 0.136; in series [2] (hFIX mRNA), 0.090; in series [2] (hLep plasmid) it was 0.182; in series [2] (hLeptin mRNA), 0.105. For the same molecule, the results for the PDI in series [2] (mEPO mRNA) and in series [2] (pDNA) were 0.145 and 0.100, respectively. Moreover, the “PDI 1st IM” value in series [2] is listed as 0.122. Besides, the “PDI 2nd IM” value in series [2] stood at 0.11. The “% encapsulation mRNA Leptin” value in series [3] came to 96.7%.
For `CCCCC/C=C\C/C=C\CCCCCCCC(=O)OCC(COC(=O)CCC(OCCCCCCCC)OCCCCCCCC)COC(=O)OCCCN(CC)CC` (stereo not drawn) [Example 13, (9Z,12Z)-3-((4,4-bis(octyloxy)butanoyl)oxy)-2-((((3-(diethylamino)propoxy)carbonyl)oxy)methyl)propyl octadeca-9,12-dienoate], the “% Encap.” value in series [1] (hLep plasmid) was determined as 95.9%; in series [1] (pDNA) it was 98.2%; in series [3] (FLuc mRNA) it was 98.3%; in series [3] (Gluc mRNA) it was 97.2%; in series [3] (hFIX mRNA), 96.4%; in series [3] (hLeptin mRNA) it was 95.4%. Moreover, in series [3] (mEPO mRNA), the “% Encap.” value turned out to be 98.5%. The PDI in series [2] (FLuc mRNA) is recorded as 0.140; in series [2] (FVII siRNA) it was 0.037; in series [2] (Gluc mRNA) it was 0.099; in series [2] (hFIX mRNA), 0.154; in series [2] (hLep plasmid) it was 0.158; in series [2] (hLeptin mRNA) it was 0.093. Moreover, the PDI in series [2] (mEPO mRNA) turned out to be 0.129; in series [2] (pDNA), 0.160. Further, in series [3], the “% encapsulation mRNA Leptin” value is given as 90.7%.
For `CCCCC/C=C\C/C=C\CCCCCCCC(=O)OCC(COC(=O)CCC(OCCCCCCCC)OCCCCCCCC)COC(=O)OCC1CCCN(CC)C1` (stereo not drawn) [Example 15, (9Z,12Z)-3-((4,4-bis(octyloxy)butanoyl)oxy)-2-(((((1-ethylpiperidin-3-yl)methoxy)carbonyl)oxy)methyl)propyl octadeca-9,12-dienoate], the “% Encap.” value worked out at 93.6% in series [1] (hLep plasmid); 93.2% in series [1] (pDNA); 98.1% in series [3] (FLuc mRNA); 98.1% in series [3] (Gluc mRNA); 98.4% in series [3] (hFIX mRNA); 97.3% in series [3] (hLeptin mRNA). In addition, the “% Encap.” value in series [3] (mEPO mRNA) turned out to be 98.3%. In addition, the PDI in series [2] (FLuc mRNA) is listed as 0.132; in series [2] (Gluc mRNA), 0.133; in series [2] (hFIX mRNA), 0.182; in series [2] (hLep plasmid), 0.149; in series [2] (hLeptin mRNA) it was 0.125; in series [2] (mEPO mRNA) it was 0.125. This molecule also returned a PDI in series [2] (pDNA) of 0.110. Besides, the “PDI 1st IM” value in series [2] was 0.121. For the same molecule, in series [2], the “PDI 2nd IM” value came out at 0.097. For the same molecule, the “% encapsulation mRNA Leptin” value in series [3] is 97.3%.

For the origin of these results see US10059655B2, “Lipids and lipid compositions for the delivery of active agents” (priority 2013, dated 2018).
